{"source": "paper PMC4536914", "about": "(Chembiochem : a European journal of chemical biology, 2012)", "origin": "cited, not measured here", "molecular_target": "Plk1 PBD (HA-EGFP-Plk1 in mitotic 293A cell lysates) (Homo sapiens, UniProt P53350)", "sequence (P53350 whole entry)": "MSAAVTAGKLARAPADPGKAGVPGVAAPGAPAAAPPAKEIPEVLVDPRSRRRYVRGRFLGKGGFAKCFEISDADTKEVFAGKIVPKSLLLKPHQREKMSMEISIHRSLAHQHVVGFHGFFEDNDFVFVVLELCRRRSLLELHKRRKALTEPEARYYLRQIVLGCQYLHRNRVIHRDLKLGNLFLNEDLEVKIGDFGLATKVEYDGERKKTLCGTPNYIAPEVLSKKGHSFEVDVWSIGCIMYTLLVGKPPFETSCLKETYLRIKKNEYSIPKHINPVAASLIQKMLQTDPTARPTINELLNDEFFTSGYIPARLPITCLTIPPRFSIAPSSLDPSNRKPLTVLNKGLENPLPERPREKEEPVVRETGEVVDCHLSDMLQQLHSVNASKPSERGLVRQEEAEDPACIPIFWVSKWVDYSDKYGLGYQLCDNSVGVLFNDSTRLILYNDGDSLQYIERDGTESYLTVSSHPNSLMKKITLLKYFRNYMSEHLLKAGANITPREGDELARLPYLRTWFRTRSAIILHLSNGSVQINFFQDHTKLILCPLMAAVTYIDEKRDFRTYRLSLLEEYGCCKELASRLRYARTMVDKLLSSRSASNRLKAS", "conditions": "previous work; ref [10]"}
{"substance": "LHSpT", "values": [{"measurement": "Plk1 PBD-binding affinity relative to parent peptide 1", "value": "significantly less Plk1 PBD-binding affinity than the parent peptide 1"}]}
